Experimental data reported in EP4198033A1, “HETEROCYCLIC COMPOUNDS FOR THE CONTROL OF INVERTEBRATE PESTS” (priority 2021, dated 2023).

Tests used:
Type in all cases: in vivo
[1] = system: Diamond back moth (Plutella xylostella); experiment: Diamond back moth leaf-dip test on cabbage leaves; settings: 72 h, read-out: mortality in comparison with untreated controls
Description: The active compound was dissolved at the desired concentration in a mixture of 1:1 (vol:vol) distilled water: acetone. Surfactant (Kinetic HV) was added at a rate of 0.01% (vol/vol). The test solution was prepared on the day of use.
Leaves of cabbage were dipped in test solution and air-dried. Treated leaves were placed in petri dishes lined with moist filter paper and inoculated with ten 3rd instar larvae. Mortality was recorded 72 hours after treatment. Feeding damages were also recorded using a scale of 0-100%.

[2] = system: Southern armyworm (Spodoptera eridania), 2nd instar larvae; experiment: Southern armyworm foliar spray test on lima bean plants; settings: 96 h, 4 days after treatment, read-out: mortality in comparison with untreated controls
Description: The active compounds were formulated by a Tecan liquid handler in 100% cyclohexanone as a 10,000-ppm solution supplied in tubes. The 10,000-ppm solution was serially diluted in 100% cyclohexanone to make interim solutions. These served as stock solutions for which final dilutions were made by the Tecan in 50% acetone:50% water (v/v) into 10 or 20ml glass vials. A nonionic surfactant (Kinetic®) was included in the solution at a volume of 0.01% (v/v). The vials were then inserted into an automated electrostatic sprayer equipped with an atomizing nozzle for application to plants/insects. Lima bean plants (variety Sieva) were grown 2 plants to a pot and selected for treatment at the 1st true leaf stage. Test solutions were sprayed onto the foliage by an automated electrostatic plant sprayer equipped with an atomizing spray nozzle. The plants were dried in the sprayer fume hood and then removed from the sprayer. Each pot was placed into perforated plastic bags with a zip closure. Ten to 11 armyworm larvae were placed into the bag and the bags zipped closed. Test plants were maintained in a growth room at about 25°C and about 20-40% relative humidity for 4 days, avoiding direct exposure to fluorescent light (14:10 light:dark photoperiod) to prevent trapping of heat inside the bags. Mortality and reduced feeding were assessed 4 days after treatment, compared to untreated control plants.

[3] = system: Boll weevil (Anthonomus grandis); experiment: Boll weevil test, insect diet with eggs in 96-well microtiter plates; settings: 120 h, egg and larval mortality, 5 days, read-out: mortality in comparison with untreated controls
Description: For evaluating control of boll weevil (Anthonomus grandis) the test unit consisted of 96-well-microtiter plates containing an insect diet and 5-10 A. grandis eggs.
The compounds were formulated using a solution containing 75% v/v water and 25% v/v DMSO. Different concentrations of formulated compounds were sprayed onto the insect diet at 5 µl, using a custom-built micro atomizer, at two replications.
After application, microtiter plates were incubated at about 25±1°C and about 75±5 % relative humidity for 5 days. Egg and larval mortality was then visually assessed.

[4] = system: Tobacco budworm (Heliothis virescens); experiment: Tobacco budworm test, insect diet with eggs in 96-well microtiter plates; settings: 120 h, egg and larval mortality, 5 days, read-out: mortality in comparison with untreated controls
Description: For evaluating control of tobacco budworm (Heliothis virescens) the test unit consisted of 96-well-microtiter plates containing an insect diet and 15-25 H. virescens eggs.
The compounds were formulated using a solution containing 75% v/v water and 25% v/v DMSO. Different concentrations of formulated compounds were sprayed onto the insect diet at 10 µl using a custom-built micro atomizer, at two replications.
After application, microtiter plates were incubated at about 28±1°C and about 80±5 % relative humidity for 5 days. Egg and larval mortality was then visually assessed.

[5] = system: Yellow fever mosquito (Aedes aegypti); experiment: whole plant or invertebrate; settings: 48 h, larval mortality, 2 days, read-out: mortality in comparison with untreated controls
Description: For evaluating control of yellow fever mosquito (Aedes aegypti) the test unit consisted of 96-well-microtiter plates containing 200µl of tap water per well and 5-15 freshly hatched A. aegypti larvae.
The active compounds were formulated using a solution containing 75% (v/v) water and 25% (v/v) DMSO. Different concentrations of formulated compounds or mixtures were sprayed onto the insect diet at 2.5µl, using a custom-built micro atomizer, at two replications.
After application, microtiter plates were incubated at 28±1 °C, 80±5 % RH for 2 days. Larval mortality was then visually assessed.

[6] = system: Green Peach Aphid (Myzus persicae); experiment: Green peach aphid systemic test, artificial diet in 96-well microtiter plates; settings: 72 h, adult aphids, 3 days, read-out: mortality in comparison with untreated controls
Description: For evaluating control of green peach aphid (Myzus persicae) through systemic means the test unit consisted of 96-well-microtiter plates containing liquid artificial diet under an artificial mem brane.
The compounds were formulated using a solution containing 75% v/v water and 25% v/v DMSO. Different concentrations of formulated compounds were pipetted into the aphid diet, using a custom built pipetter, at two replications.
After application, 5-8 adult aphids were placed on the artificial membrane inside the microtiter plate wells. The aphids were then allowed to suck on the treated aphid diet and incubated at about 23±1°C and about 50±5 % relative humidity for 3 days. Aphid mortality and fecundity was then visually assessed.

CC(NC(=O)c1cc(Br)cc(C(F)(F)F)c1)c1ocnc1-c1ncc(OC(F)F)cn1 (centres unmarked) [I-1, 3-bromo-N-[1-[4-[5-(difluoromethoxy)pyrimidin-2-yl]oxazol-5-yl]ethyl]-5-(trifluoromethyl)benzamide]
≥ 75%: mortality at 300 ppm [1] | mortality at 300 ppm [2] | mortality at 2500 ppm [3] | mortality at 2500 ppm [4] | mortality at 2500 ppm [5]

CC(NC(=O)c1cc(OC(F)F)cc(C(F)(F)F)c1)c1ncoc1-c1ncccn1 (centres unmarked) [I-3, 3-(difluoromethoxy)-N-[1-(5-pyrimidin-2-yloxazol-4-yl)ethyl]-5-(trifluoromethyl)benzamide]
≥ 75%: mortality at 300 ppm [2] | mortality at 2500 ppm [3] | mortality at 2500 ppm [6] | mortality at 2500 ppm [5]

CCN(C(=O)c1cc(OC(F)F)cc(C(F)(F)F)c1)C(C)c1ncoc1-c1ncccn1 (centres unmarked) [I-5, 3-(difluoromethoxy)-N-ethyl-N-[1-(5-pyrimidin-2-yloxazol-4-yl)ethyl]-5-(trifluoromethyl)benzamide]
≥ 75%: mortality at 2500 ppm [3] | mortality at 2500 ppm [6]
